Test results taken from patent publication US11957687B2 (REGENERON PHARMACEUTICALS, INC., priority 2019, dated 2024).

Molecular target: HSD17B13 (Homo sapiens (Human), UniProt Q7Z5P4)
Experiment: HSD17B13 enzymatic inhibition assay (150 nM or 50 nM HSD17B13)
Type: biochemical
Conditions: 50 nM HSD17B13; read-out: Inhibition of 50 nM of HSD17B13 IC50

Sequence of HSD17B13 (Q7Z5P4 other isoform, or with tags, fused parts or gaps): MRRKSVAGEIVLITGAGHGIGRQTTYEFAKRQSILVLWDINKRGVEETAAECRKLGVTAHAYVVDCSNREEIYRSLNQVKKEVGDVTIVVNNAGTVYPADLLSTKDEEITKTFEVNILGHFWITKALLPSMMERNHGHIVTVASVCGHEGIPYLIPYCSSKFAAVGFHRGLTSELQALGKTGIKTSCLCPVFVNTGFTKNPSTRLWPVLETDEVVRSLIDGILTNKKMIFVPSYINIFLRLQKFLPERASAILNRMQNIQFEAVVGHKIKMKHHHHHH

Row | IC50 | SMILES
1 | 610 nM | Nc1ccc(CSc2ncc(C(=O)NC3c4ccc(Cl)cc4Oc4cc(Cl)ccc43)c(=O)[nH]2)cc1C(F)(F)F [Compound 522, 2-((4-amino-3-(trifluoromethyl)benzyl)thio)-N-(3,6-dichloro-9H-xanthen-9-yl)-6-oxo-1,6-dihydropyrimidine-5-carboxamide]
2 | > 10000 nM | Cc1ccc2c(c1)Oc1cccc(C)c1C2NC(=O)c1cc(CCN(C)C)c(C(F)(F)F)[nH]c1=O (centres unmarked) [Compound 523, N-(1,6-dimethyl-9H-xanthen-9-yl)-5-(2-(dimethylamino)ethyl)-2-oxo-6-(trifluoromethyl)-1,2-dihydropyridine-3-carboxamide]
3 | 9330 nM | CNCCc1cc(C(=O)NC2c3ccc(C)cc3Oc3cccc(C)c32)c(=O)[nH]c1C(F)(F)F (centres unmarked) [Compound 524, N-(1,6-dimethyl-9H-xanthen-9-yl)-5-(2-(methylamino)ethyl)-2-oxo-6-(trifluoromethyl)-1,2-dihydropyridine-3-carboxamide]
4 | 6510 nM | CNCc1cc(C(=O)NC2c3ccc(C)cc3Oc3cccc(C)c32)c(=O)[nH]c1C(F)(F)F (centres unmarked) [Compound 525, N-(1,6-dimethyl-9H-xanthen-9-yl)-5-((methylamino)methyl)-2-oxo-6-(trifluoromethyl)-1,2-dihydropyridine-3-carboxamide]
5 | 3780 nM | Cc1ccc2c(c1)Oc1cccc(C)c1C2NC(=O)c1cc(CN(C)C)c(C(F)(F)F)[nH]c1=O (centres unmarked) [Compound 526, N-(1,6-dimethyl-9H-xanthen-9-yl)-5-((dimethylamino)methyl)-2-oxo-6-(trifluoromethyl)-1,2-dihydropyridine-3-carboxamide]
6 | 990 nM | N#Cc1cccc2c1C(NC(=O)c1ccc(C(F)(F)F)[nH]c1=O)c1ccccc1O2 (centres unmarked) [Compound 527, N-(1-cyano-9H-xanthen-9-yl)-2-oxo-6-(trifluoromethyl)-1,2-dihydropyridine-3-carboxamide]
7 | > 10000 nM | O=C(NC1c2ccc(Cl)cc2Oc2cccc(Cl)c21)c1cnc(SCc2ccccc2C(F)(F)F)[nH]c1=O (centres unmarked) [Compound 529, N-(1,6-dichloro-9H-xanthen-9-yl)-6-oxo-2-((2-(trifluoromethyl)benzyl)thio)-1,6-dihydropyrimidine-5-carboxamide]
8 | > 10000 nM | CCc1cccc2c1CCCC2NC(=O)c1ccc(C(F)(F)F)[nH]c1=O (centres unmarked) [Compound 530, N-(5-ethyl-1,2,3,4-tetrahydronaphthalen-1-yl)-2-oxo-6-(trifluoromethyl)-1,2-dihydropyridine-3-carboxamide]
9 | > 10000 nM | CCCc1cccc2c1CCCC2NC(=O)c1ccc(C(F)(F)F)[nH]c1=O (centres unmarked) [Compound 531, 2-oxo-N-(5-propyl-1,2,3,4-tetrahydronaphthalen-1-yl)-6-(trifluoromethyl)-1,2-dihydropyridine-3-carboxamide]
10 | 5200 nM | C=CCc1cccc2c1CCCC2NC(=O)c1ccc(C(F)(F)F)[nH]c1=O (centres unmarked) [Compound 532, N-(5-allyl-1,2,3,4-tetrahydronaphthalen-1-yl)-2-oxo-6-(trifluoromethyl)-1,2-dihydropyridine-3-carboxamide]
11 | 1080 nM | O=C(NC1c2ccc(Cl)cc2Oc2cc(Cl)ccc21)c1cnc(COc2cccc(C(F)(F)F)c2)[nH]c1=O [Compound 534, N-(3,6-dichloro-9H-xanthen-9-yl)-6-oxo-2-((3-(trifluoromethyl)phenoxy)methyl)-1,6-dihydropyrimidine-5-carboxamide]
12 | 50 nM | Cc1ccc2c(c1)Sc1cc(C)ccc1C2NC(=O)c1cc(Br)c(C(F)(F)F)[nH]c1=O [Compound 535, 5-bromo-N-(3,6-dimethyl-9H-thioxanthen-9-yl)-2-oxo-6-(trifluoromethyl)-1,2-dihydropyridine-3-carboxamide]
13 | 320 nM | C=Cc1ccc2c(c1)C(NC(=O)c1ccc(C(F)(F)F)[nH]c1=O)c1ccccc1S2 (centres unmarked) [Compound 536, 2-oxo-6-(trifluoromethyl)-N-(2-vinyl-9H-thioxanthen-9-yl)-1,2-dihydropyridine-3-carboxamide]
14 | 150 nM | CCc1ccc2c(c1)C(NC(=O)c1ccc(C(F)(F)F)[nH]c1=O)c1ccccc1S2 (centres unmarked) [Compound 537, N-(2-ethyl-9H-thioxanthen-9-yl)-2-oxo-6-(trifluoromethyl)-1,2-dihydropyridine-3-carboxamide]
15 | 40 nM | C=Cc1cc(C(=O)NC2c3ccc(C)cc3Sc3cc(C)ccc32)c(=O)[nH]c1C(F)(F)F [Compound 538, N-(3,6-dimethyl-9H-thioxanthen-9-yl)-2-oxo-6-(trifluoromethyl)-5-vinyl-1,2-dihydropyridine-3-carboxamide]
16 | 740 nM | C=CCc1cccc(C(NC(=O)c2ccc(C(F)(F)F)[nH]c2=O)c2ccccc2)c1 (centres unmarked) [Compound 539, N-((3-allylphenyl)(phenyl)methyl)-2-oxo-6-(trifluoromethyl)-1,2-dihydropyridine-3-carboxamide]

Row | IC50 | SMILES
17 | 1130 nM | CSc1cc(C)ccc1C(NC(=O)c1ccc(C(F)(F)F)[nH]c1=O)c1ccccc1 (centres unmarked) [Compound 540, N-((4-methyl-2-(methylthio)phenyl)(phenyl)methyl)-2-oxo-6-(trifluoromethyl)-1,2-dihydropyridine-3-carboxamide]
18 | 60 nM | Cc1ccc2c(c1)O[C@@H]1CCCC[C@H]1[C@H]2NC(=O)c1ccc(C(F)(F)F)[nH]c1=O [Compound 541, N-((4aR,9R,9aS)-6-methyl-2,3,4,4a,9,9a-hexahydro-1H-xanthen-9-yl)-2-oxo-6-(trifluoromethyl)-1,2-dihydropyridine-3-carboxamide]
19 | 4670 nM | CCCC1=C(NC(=O)c2ccc(C(F)(F)F)[nH]c2=O)c2cc(C)ccc2C1=O [Compound 542, N-(5-methyl-1-oxo-2-propyl-1H-inden-3-yl)-2-oxo-6-(trifluoromethyl)-1,2-dihydropyridine-3-carboxamide]
20 | 1150 nM | CCCC1=C(NC(=O)c2ccc(C(F)(F)F)[nH]c2=O)c2cc(C)ccc2C1O (centres unmarked) [Compound 544, N-(1-hydroxy-5-methyl-2-propyl-1H-inden-3-yl)-2-oxo-6-(trifluoromethyl)-1,2-dihydropyridine-3-carboxamide]
21 | > 10000 nM | Cc1ccc2c(c1)N(C(=O)OC(C)(C)C)CCC2NC(=O)c1ccc(C(F)(F)F)[nH]c1=O (centres unmarked) [Compound 546, tert-butyl 7-methyl-4-(2-oxo-6-(trifluoromethyl)-1,2-dihydropyridine-3-carboxamido)-3,4-dihydroquinoline-1(2H)-carboxylate]
22 | 6240 nM | C=Cc1cccc2c1CCCC2NC(=O)c1ccc(C(F)(F)F)[nH]c1=O (centres unmarked) [Compound 547, 2-oxo-6-(trifluoromethyl)-N-(5-vinyl-1,2,3,4-tetrahydronaphthalen-1-yl)-1,2-dihydropyridine-3-carboxamide]
23 | 9280 nM | O=C(NC1CCCc2c(/C=C/c3ccccc3)cccc21)c1ccc(C(F)(F)F)[nH]c1=O (centres unmarked) [Compound 548, (E)-2-oxo-N-(5-styryl-1,2,3,4-tetrahydronaphthalen-1-yl)-6-(trifluoromethyl)-1,2-dihydropyridine-3-carboxamide]
24 | 8370 nM | N#Cc1cccc2c1CCCC2NC(=O)c1ccc(C(F)(F)F)[nH]c1=O (centres unmarked) [Compound 549, N-(5-cyano-1,2,3,4-tetrahydronaphthalen-1-yl)-2-oxo-6-(trifluoromethyl)-1,2-dihydropyridine-3-carboxamide]
25 | 1600 nM | Cc1ccc(C(CC2CCCO2)NC(=O)c2ccc(C(F)(F)F)[nH]c2=O)cc1 (centres unmarked) [Compound 550, 2-oxo-N-(2-(tetrahydrofuran-2-yl)-1-(p-tolyl)ethyl)-6-(trifluoromethyl)-1,2-dihydropyridine-3-carboxamide]
26 | 2690 nM | Cc1ccc(C(CC2CCOCC2)NC(=O)c2ccc(C(F)(F)F)[nH]c2=O)cc1 (centres unmarked) [Compound 551, 2-oxo-N-(2-(tetrahydro-2H-pyran-4-yl)-1-(p-tolyl)ethyl)-6-(trifluoromethyl)-1,2-dihydropyridine-3-carboxamide]
27 | 590 nM | CC[C@H](C[C@@H](NC(=O)c1ccc(C(F)(F)F)[nH]c1=O)c1ccc(C)cc1)OC [Compound 552, N-((1R,3R)-3-methoxy-1-(p-tolyl)pentyl)-2-oxo-6-(trifluoromethyl)-1,2-dihydropyridine-3-carboxamide]
28 | 2080 nM | CC[C@@H](C[C@@H](NC(=O)c1ccc(C(F)(F)F)[nH]c1=O)c1ccc(C)cc1)OC [Compound 553, N-((1R,3S)-3-methoxy-1-(p-tolyl)pentyl)-2-oxo-6-(trifluoromethyl)-1,2-dihydropyridine-3-carboxamide]
29 | 2350 nM | CC[C@@H](O)C[C@@H](NC(=O)c1ccc(C(F)(F)F)[nH]c1=O)c1ccc(C)cc1 [Compound 554, N-((1R,3R)-3-hydroxy-1-(p-tolyl)pentyl)-2-oxo-6-(trifluoromethyl)-1,2-dihydropyridine-3-carboxamide]
30 | > 10000 nM | CC[C@H](O)C[C@@H](NC(=O)c1ccc(C(F)(F)F)[nH]c1=O)c1ccc(C)cc1 [Compound 555, N-((1R,3S)-3-hydroxy-1-(p-tolyl)pentyl)-2-oxo-6-(trifluoromethyl)-1,2-dihydropyridine-3-carboxamide]
31 | 2350 nM | Cc1ccc(C(CC2CCOC2)NC(=O)c2ccc(C(F)(F)F)[nH]c2=O)cc1 (centres unmarked) [Compound 556, 2-oxo-N-(2-(tetrahydrofuran-3-yl)-1-(p-tolyl)ethyl)-6-(trifluoromethyl)-1,2-dihydropyridine-3-carboxamide]
32 | 4570 nM | Cc1ccc(C(NC(=O)c2ccc(C(F)(F)F)[nH]c2=O)C2CCOCC2)cc1 (centres unmarked) [Compound 558, 2-oxo-N-((tetrahydro-2H-pyran-4-yl)(p-tolyl)methyl)-6-(trifluoromethyl)-1,2-dihydropyridine-3-carboxamide]
